Assay results as given in US20090149417A1, “Methods and compositions for the treatment of cancer using benzopyrone-type PARP inhibitors” (priority 2007, published 2009).
“And” between values parts separate entries of the source, which are not always exact repeats. Equal values may be shown once.

Legend:
[1] = test system: Colo375FG metastatic pancreatic adenocarcinoma cells; test: Bromodeoxyuridine (BrdU) labeling assay (flow cytometry); format: cell-based, human
Experimental: 50 μl of BrdU (Sigma Chemical Co., St. Louis, Mo.) stock solution (1 mM) is added to give 10 μM BrdU final concentration. The cells are incubated for 30 min at 37° C. and fixed in ice-cold 70% ethanol and stored in a cold room (4° C.) overnight. Fixed cells are centrifuged and washed once in 2 ml PBS, then resuspended in 0.7 ml of denaturation solution (0.2 mg/ml pepsin in 2 N HCl) for 15 min at 37° C. in the dark and suspended with 1.04 ml 1M Tris buffer (Trizma base, Sigma Chemical Co.) to terminate the hydrolysis and washed in 2 ml PBS.
(§1) Cells are resuspended in 100-μl anti-BrdU antibody (DakoCytomation, Carpinteria, Calif.) with 1:100 dilution in TBFP permeable buffer (0.5% Tween-20, 1% bovine serum albumin and 1% fetal bovine serum in PBS) and incubated for 25 min at room temperature in the dark and washed in 2 ml PBS. The primary antibody-labeled cells are resuspended in 100 μl Alexa Fluor F(ab′)2 fragment of goat anti-mouse IgG (H+L) (2 mg/mL) (Molecular Probes, Eugene, Oreg.) with 1:200 dilution in TBFP permeable buffer and incubated for 25 min at room temperature in the dark and washed in 2 ml PBS, then resuspended in 0.5 ml ice-cold PBS containing 1 μg/ml 4′,6-diamidino-2-phenylindole (DAPI) for at least 30 min. All cell samples are analyzed with a BD LSR II (BD Biosciences, San Jose, Calif.).
as §1, with “50 μl of BrdU (Sigma Chemical Co., St. Louis, Mo.) stock solution (1 mM) is added to give 10 μM BrdU final concentration. The cells are incubated for 30 min at 37 °C and fixed in ice-cold 70% ethanol and stored in a cold room (4 °C) overnight. Fixed cells are centrifuged and washed once in 2 ml PBS, then resuspended in 0.7 ml of denaturation solution (0.2 mg/ml pepsin in 2 N HCl) for 15 min at 37° C. in the dark and suspended with 1.04 ml 1M Tris buffer (Trizma base, Sigma Chemical Co.) and washed in 2 ml PBS. Then cells” for “Cells”

[2] = test system: Colo375FG metastatic pancreatic adenocarcinoma cells; test: Live cell number (Coulter counter, methylene blue, PI exclusion); format: cell-based, human
Experimental: Colo375FG metastatic pancreatic adenocarcinoma cells are cultured in Dulbecco Modified Eagle Medium with 10% fetal bovine serum. Cells are plated at 10^5 per P100 or at 10^4 per P60 (for assays requiring up to 3 days of culture), in the presence of different concentrations of BiPar compounds and other agents, or DMSO control. Following treatment, the number of attached cells is measured using Coulter counter, and by staining with 1% methylene blue. Methylene blue is dissolved in 50%-50% mixture of Methanol and water. Cells are plated in 24- or 96-well plates and treated with compounds as indicated, then media are aspirated, cells are washed with PBS, fixed in methanol for 5-10 min, washed and the plates are allowed to dry completely. Methylene blue solution is added to wells and plates are incubated for 5 min. Staining solution is removed and plates are washed with dH2O. After plates are completely dry, a small amount of 1N HCl is added to each well to extract the methylene blue. The OD readout at 600 nm and a calibration curve are used to determine cell number.
IIIg (6-nitro-5-iodo-benzopyrone) is dissolved directly from dry powder to 10 mM stock solution in DMSO for each separate experiment, and then the entire volume of the stock solution is used to prepare working concentrations in cell culture medium to avoid any possibility of precipitation and the corresponding loss of compound. Control experiments are carried out with the matching volume/concentration of the vehicle (DMSO).
After the addition of drugs and incubation, cells are trypsinized and aliquots of the samples are taken for counting and PI (Propidium Iodide) exclusion assay. One part of the cells is centrifuged and resuspended in 0.5 ml ice-cold PBS containing 5 μg/ml of PI. The other part of the cells is fixed in ice-cold 70% ethanol and stored in a freezer overnight. For cell cycle analysis, cells are stained with propidium iodide (PI) by standard procedures. Cellular DNA content is determined by flow cytometry using BD LSRII FACS, and the percentages of cells in G1, S or G2/M are determined using ModFit software.
Colo375FG metastatic pancreatic adenocarcinoma cells are obtained from ATCC and cultured in Dulbecco Modified Eagle Medium with 10% fetal bovine serum. Cells are plated at 10^5 cells per P100 cell culture dish or at 10^4 cells per P60 cell culture dish in the presence of different concentrations compounds or DMSO control. Following treatment, the number of attached cells is measured using Coulter counter, and by staining with 1% methylene blue. Methylene blue is dissolved in 50%-50% mixture of Methanol and water. Cells are plated in 24- or 96-well plates and treated as planned, media are aspirated, cells are washed with PBS, fixed in methanol for 5-10 min, methanol is aspirated and plates are allowed to dry completely. Methylene blue solution is added to wells and plates are incubated for 5 min. Staining solution is removed and plates are washed with dH2O until washes are no longer blue. After plates are completely dry, a small amount of 1N HCl is added to each well to extract the methylene blue. The OD readout at 600 nm and a calibration curve are used to determine cell number.
Compounds of the invention are dissolved directly from dry powder to 10 mM stock solution in DMSO for each separate experiment. Control experiments are carried out with the matching volume/concentration of the vehicle (DMSO). In these controls, the cells show no changes in their growth or cell cycle distribution.
After the addition of drugs and incubation, cells are trypsinized and aliquots of the samples are taken for counting and PI (Propidium Iodide) exclusion assay. One part of the cells is centrifuged and resuspended in 0.5 ml ice-cold PBS containing 5 ug/ml of PI. The other part of the cells is fixed in ice-cold 70% ethanol and stored in a freezer overnight. For cell cycle analysis, cells are stained with propidium iodide (PI) by standard procedures. […]

[3] = combination of IIIg and oxaliplatin
[4] = combination: IIIg 2.5 μM + OxaliPt 10 μM
[5] = combination: IIIg 2.5 μM + OxaliPt 20 μM
[6] = combination: IIIg 12.5 μM + OxaliPt 10 μM
[7] = combination: IIIg 12.5 μM + OxaliPt 20 μM
[8] = combination: IIIg 25 μM + OxaliPt 10 μM
[9] = combination: IIIg 25 μM + OxaliPt 20 μM
[10] = Compound IIIc 0 mM, OxaliPt 10 mM

Question: Which results are given for `O=c1ccc2c(I)c([N+](=O)[O-])ccc2o1` [IIIg, 5-iodo-6-nitro-benzopyrone]?
Answer: S-phase % BrdU+ ([1]; IIIg 2.5 μM, OxaliPt 0 μM): 94.89%; S-phase % BrdU+ ([1]; IIIg 12.5 μM, OxaliPt 0 μM): 93.1%; S-phase % BrdU+ ([1]; IIIg 25 μM, OxaliPt 0 μM): 75.18%; Proliferation (percentage of BrdU positive cells) [1, 3]: inhibits the proliferation; S-phase % BrdU+ [1, 4]: 86.3%; S-phase % BrdU+ [1, 5]: 65.32%; S-phase % BrdU+ [1, 6]: 67.5%; S-phase % BrdU+ [1, 7]: 33%; S-phase % BrdU+ [1, 8]: 24.69%; S-phase % BrdU+ [1, 9]: 33.85%; Live Cell (%) ([2]; IIIg 2.5 μM, OxaliPt 0 μM): 100% and 118%; Percentage of live cells [2, 3]: significantly reduces the percentage of live cells; Live Cell (%) [2, 4]: 62%; Live Cell (%) [2, 5]: 27%; Live Cell (%) [2, 6]: 22%; Live Cell (%) [2, 7]: 13%; Live Cell (%) [2, 8]: 11%; Live Cell (%) [2, 9]: 7%

Question: `O=C1[O][Pt]2([NH][C@@H]3CCCC[C@H]3[NH]2)[O]C1=O` [OxaliPt, oxaliplatin, reference compound] was tested. Which “Cells in S-phase of cell cycle (% BrdU+)” value [1, 10] did it give?
Answer: Its value is 81.74%.

Question: What about the “S-phase % BrdU+” value ([1]; IIIg 0 μM, OxaliPt 10 μM) of the same compound?
Answer: The value was 81.74%.

Question: And the “S-phase % BrdU+” value ([1]; IIIg 0 μM, OxaliPt 20 μM)?
Answer: The value was 63.12%.

Question: What about the “Live Cell (%)” value [2, 10] of the same compound?
Answer: The value was 54%.

Question: And the “Live Cell (%)” value ([2]; Compound IIIc 0 mM, OxaliPt 20 mM)?
Answer: Its value is 29%.

Question: What about the “Live Cell (%)” value ([2]; IIIg 0 μM, OxaliPt 10 μM) of the same compound?
Answer: Its value is 54%.

Question: And the “Live Cell (%)” value ([2]; IIIg 0 μM, OxaliPt 20 μM)?
Answer: Its value is 29%.
